According to ChEMBL document CHEMBL1144455, “A small molecule-kinase interaction map for clinical kinase inhibitors” (Nat Biotechnol, 2005):

What was measured:
Aurora kinase C = target: T1, Aurora kinase C (Homo sapiens, UniProt Q9UQB9)
T1 sequence (Q9UQB9 whole entry): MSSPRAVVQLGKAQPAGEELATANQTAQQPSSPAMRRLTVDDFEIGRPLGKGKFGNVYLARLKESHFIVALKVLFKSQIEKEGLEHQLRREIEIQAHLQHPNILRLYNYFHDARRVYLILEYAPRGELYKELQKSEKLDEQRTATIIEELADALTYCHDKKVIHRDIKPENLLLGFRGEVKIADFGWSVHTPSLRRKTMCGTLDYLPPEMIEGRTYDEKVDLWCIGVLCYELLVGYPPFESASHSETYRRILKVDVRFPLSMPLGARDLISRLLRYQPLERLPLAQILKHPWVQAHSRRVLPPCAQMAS

[1] = target: Calcium/calmodulin-dependent protein kinase type II subunit delta (Homo sapiens, UniProt Q13557)
Calcium/calmodulin-dependent protein kinase type II subunit delta, sequence (Q13557 whole entry): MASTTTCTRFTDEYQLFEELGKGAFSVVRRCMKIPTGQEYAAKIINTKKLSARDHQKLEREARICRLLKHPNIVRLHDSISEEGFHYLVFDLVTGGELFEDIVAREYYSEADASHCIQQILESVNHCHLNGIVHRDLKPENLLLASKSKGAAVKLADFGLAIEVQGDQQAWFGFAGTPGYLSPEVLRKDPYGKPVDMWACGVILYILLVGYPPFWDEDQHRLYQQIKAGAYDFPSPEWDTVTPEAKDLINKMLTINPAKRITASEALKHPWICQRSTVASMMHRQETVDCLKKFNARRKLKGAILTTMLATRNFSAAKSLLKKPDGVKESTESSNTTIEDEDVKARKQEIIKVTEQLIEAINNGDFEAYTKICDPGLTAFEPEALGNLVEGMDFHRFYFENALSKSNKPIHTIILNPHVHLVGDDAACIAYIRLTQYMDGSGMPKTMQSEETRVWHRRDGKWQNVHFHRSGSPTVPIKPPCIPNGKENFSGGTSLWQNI

[2] = target: Calcium/calmodulin-dependent protein kinase kinase 2 (Homo sapiens, UniProt Q96RR4)
Calcium/calmodulin-dependent protein kinase kinase 2, sequence (Q96RR4 whole entry): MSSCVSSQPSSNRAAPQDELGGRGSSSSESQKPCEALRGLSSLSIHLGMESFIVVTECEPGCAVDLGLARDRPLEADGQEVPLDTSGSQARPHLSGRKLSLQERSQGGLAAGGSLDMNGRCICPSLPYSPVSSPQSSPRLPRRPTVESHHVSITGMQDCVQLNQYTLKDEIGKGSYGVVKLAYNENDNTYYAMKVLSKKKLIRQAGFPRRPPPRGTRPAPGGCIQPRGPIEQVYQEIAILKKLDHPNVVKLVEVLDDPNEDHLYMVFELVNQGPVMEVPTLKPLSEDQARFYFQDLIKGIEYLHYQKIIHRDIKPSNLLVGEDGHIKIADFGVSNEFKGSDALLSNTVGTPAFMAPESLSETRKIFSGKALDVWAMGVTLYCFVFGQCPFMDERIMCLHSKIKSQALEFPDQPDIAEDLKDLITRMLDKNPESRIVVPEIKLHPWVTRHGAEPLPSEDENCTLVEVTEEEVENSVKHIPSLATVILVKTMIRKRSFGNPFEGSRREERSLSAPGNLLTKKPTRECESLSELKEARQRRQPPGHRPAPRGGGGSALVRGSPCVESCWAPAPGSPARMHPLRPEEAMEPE

[3] = target: Ribosomal protein S6 kinase alpha-2 (Homo sapiens, UniProt Q15349)
Ribosomal protein S6 kinase alpha-2, sequence (Q15349 whole entry): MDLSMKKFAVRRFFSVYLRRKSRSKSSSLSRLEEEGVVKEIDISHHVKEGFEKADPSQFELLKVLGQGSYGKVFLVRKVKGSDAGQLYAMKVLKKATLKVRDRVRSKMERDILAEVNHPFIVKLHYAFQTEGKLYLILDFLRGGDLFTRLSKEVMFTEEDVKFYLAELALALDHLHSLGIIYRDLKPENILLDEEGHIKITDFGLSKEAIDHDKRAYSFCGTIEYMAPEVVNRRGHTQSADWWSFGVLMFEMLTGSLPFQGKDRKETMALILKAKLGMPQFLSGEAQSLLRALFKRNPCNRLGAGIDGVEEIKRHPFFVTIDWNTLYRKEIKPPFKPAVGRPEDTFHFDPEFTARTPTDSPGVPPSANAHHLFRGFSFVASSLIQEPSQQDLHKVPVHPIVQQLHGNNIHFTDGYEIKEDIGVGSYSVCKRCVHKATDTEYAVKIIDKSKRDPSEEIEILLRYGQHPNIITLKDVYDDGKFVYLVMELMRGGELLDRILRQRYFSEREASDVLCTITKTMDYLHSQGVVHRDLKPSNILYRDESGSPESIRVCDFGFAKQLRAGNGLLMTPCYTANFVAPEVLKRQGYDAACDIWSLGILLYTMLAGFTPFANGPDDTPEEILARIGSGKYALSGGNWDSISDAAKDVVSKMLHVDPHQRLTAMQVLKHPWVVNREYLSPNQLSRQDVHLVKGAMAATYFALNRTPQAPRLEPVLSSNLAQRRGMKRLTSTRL

[4] = target: T2, Receptor-type tyrosine-protein kinase FLT3 (Homo sapiens, UniProt P36888)
T2 sequence (P36888 whole entry): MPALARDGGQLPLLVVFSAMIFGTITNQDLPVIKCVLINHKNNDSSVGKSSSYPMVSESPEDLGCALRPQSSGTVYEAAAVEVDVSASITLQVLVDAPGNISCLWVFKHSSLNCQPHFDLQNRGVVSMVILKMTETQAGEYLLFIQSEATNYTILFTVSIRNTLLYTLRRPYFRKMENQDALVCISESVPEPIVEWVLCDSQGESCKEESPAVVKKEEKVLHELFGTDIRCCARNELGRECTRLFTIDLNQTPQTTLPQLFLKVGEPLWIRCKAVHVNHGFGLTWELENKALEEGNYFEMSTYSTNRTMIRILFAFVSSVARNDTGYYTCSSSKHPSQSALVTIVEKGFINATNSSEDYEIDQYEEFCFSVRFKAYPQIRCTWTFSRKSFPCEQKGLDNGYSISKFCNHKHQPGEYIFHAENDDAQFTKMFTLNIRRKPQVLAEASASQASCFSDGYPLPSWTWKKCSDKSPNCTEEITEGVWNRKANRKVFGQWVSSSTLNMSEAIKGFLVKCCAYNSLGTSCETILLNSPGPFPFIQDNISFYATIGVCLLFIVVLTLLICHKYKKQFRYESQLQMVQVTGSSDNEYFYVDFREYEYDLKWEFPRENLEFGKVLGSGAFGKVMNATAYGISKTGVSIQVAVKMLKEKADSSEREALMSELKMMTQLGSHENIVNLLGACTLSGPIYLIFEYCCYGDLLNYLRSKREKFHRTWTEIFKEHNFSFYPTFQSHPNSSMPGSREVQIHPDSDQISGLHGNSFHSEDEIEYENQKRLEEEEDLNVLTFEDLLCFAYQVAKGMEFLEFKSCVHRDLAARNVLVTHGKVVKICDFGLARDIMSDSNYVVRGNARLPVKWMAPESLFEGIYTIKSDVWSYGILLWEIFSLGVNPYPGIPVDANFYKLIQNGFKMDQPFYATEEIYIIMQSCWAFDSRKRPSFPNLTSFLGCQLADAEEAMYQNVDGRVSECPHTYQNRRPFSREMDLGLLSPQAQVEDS

[5] = target: Tyrosine-protein kinase JAK1 (Homo sapiens, UniProt P23458)
Tyrosine-protein kinase JAK1, sequence (P23458 whole entry, canonical isoform): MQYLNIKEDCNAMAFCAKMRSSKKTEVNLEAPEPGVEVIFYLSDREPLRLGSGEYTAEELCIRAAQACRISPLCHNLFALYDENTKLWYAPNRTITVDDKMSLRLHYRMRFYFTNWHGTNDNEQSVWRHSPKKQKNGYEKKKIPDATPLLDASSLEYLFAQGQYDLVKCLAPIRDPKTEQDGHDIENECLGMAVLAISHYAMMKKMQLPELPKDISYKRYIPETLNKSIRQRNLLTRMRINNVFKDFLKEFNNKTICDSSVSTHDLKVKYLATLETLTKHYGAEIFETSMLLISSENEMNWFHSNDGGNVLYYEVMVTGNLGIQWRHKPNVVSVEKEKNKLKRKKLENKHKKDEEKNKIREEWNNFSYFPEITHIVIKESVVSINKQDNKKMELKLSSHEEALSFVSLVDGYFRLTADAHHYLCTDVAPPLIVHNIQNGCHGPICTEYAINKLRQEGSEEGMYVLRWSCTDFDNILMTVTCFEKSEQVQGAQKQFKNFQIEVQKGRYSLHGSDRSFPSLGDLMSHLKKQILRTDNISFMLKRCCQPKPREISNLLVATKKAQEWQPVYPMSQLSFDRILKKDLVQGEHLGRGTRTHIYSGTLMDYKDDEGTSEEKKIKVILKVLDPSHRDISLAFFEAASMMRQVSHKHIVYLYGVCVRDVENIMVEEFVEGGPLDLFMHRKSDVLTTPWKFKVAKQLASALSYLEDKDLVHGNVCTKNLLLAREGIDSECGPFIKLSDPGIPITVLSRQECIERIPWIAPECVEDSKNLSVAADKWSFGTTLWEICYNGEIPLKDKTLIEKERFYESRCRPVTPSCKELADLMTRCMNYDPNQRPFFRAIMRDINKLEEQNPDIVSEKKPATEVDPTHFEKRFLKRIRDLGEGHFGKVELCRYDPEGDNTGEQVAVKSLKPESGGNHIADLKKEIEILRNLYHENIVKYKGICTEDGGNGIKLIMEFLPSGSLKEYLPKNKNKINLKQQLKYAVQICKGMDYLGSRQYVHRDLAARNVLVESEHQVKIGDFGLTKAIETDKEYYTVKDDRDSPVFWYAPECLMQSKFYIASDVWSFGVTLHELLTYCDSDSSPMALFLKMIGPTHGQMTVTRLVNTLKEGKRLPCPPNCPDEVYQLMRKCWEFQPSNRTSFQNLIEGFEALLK

[6] = target: T3, Phosphorylase b kinase gamma catalytic chain, liver/testis isoform (Homo sapiens, UniProt P15735)
T3 sequence (P15735 whole entry): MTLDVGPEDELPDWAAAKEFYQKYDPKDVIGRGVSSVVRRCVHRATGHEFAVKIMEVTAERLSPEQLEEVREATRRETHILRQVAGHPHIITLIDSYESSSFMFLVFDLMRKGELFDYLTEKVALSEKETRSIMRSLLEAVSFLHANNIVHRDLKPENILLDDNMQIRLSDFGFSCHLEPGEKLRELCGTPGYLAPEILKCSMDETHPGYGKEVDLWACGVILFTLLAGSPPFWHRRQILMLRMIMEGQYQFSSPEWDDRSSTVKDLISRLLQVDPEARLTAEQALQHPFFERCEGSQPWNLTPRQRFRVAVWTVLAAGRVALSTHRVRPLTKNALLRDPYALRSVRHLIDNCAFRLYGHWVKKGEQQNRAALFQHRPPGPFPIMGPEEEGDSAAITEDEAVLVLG

[7] = target: Dual specificity protein kinase CLK3 (Homo sapiens, UniProt P49761)
Dual specificity protein kinase CLK3, sequence (P49761 whole entry): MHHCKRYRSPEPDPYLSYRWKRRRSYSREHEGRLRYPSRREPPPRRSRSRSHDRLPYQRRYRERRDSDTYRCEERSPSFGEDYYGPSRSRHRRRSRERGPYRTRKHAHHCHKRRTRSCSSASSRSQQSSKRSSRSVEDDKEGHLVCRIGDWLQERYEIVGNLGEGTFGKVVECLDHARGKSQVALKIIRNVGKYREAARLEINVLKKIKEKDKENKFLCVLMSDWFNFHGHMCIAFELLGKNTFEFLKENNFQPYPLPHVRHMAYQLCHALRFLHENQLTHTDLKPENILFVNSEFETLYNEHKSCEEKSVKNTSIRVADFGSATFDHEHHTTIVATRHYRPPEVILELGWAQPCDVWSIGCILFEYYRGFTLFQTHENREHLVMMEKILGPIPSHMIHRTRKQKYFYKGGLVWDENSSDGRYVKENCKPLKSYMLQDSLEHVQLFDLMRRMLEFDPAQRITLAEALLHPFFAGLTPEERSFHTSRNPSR

[8] = target: Fibroblast growth factor receptor 2 (Homo sapiens, UniProt P21802)
Fibroblast growth factor receptor 2, sequence (P21802 whole entry): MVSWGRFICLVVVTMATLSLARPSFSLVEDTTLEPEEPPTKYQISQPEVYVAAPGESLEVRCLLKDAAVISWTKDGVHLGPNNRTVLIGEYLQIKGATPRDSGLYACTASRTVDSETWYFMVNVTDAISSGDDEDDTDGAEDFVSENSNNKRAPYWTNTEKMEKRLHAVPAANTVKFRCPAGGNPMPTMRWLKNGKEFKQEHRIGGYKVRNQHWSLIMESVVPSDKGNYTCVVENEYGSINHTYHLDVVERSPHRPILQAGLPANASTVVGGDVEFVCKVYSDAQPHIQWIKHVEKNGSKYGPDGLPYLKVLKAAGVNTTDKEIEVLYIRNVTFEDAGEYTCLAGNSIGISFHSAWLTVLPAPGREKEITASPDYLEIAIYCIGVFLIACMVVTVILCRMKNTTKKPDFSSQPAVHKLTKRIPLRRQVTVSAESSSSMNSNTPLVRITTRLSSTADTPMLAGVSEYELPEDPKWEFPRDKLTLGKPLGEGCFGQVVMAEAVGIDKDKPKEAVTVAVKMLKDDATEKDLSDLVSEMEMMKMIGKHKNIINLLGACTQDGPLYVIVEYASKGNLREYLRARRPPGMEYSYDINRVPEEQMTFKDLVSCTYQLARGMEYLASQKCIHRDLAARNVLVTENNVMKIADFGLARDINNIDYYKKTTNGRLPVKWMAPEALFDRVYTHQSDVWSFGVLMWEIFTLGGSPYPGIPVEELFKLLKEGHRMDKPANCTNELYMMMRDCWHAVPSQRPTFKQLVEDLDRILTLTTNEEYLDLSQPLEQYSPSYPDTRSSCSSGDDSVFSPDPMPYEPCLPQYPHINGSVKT

[9] = target: T4, Serine/threonine-protein kinase ULK3 (Mus musculus, UniProt Q3U3Q1)
T4 sequence (Q3U3Q1 whole entry): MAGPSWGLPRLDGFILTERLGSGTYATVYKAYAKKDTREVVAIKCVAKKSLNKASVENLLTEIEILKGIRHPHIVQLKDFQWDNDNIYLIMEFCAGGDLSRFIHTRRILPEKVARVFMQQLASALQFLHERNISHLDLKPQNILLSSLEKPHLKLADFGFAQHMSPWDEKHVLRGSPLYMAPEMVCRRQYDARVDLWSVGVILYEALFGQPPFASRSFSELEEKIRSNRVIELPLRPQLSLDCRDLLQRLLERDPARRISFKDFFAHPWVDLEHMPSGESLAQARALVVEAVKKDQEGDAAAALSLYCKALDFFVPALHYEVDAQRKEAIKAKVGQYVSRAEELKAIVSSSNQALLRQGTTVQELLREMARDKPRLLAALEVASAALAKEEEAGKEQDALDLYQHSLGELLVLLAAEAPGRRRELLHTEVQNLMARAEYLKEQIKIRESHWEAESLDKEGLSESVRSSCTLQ

Measured: Kd

C#Cc1cccc(Nc2ncnc3cc(OCCOC)c(OCCOC)cc23)c1 [ERLOTINIB]
not listed: [8] | [9]
Not Active: all other assays above

Cc1ccc(NC(=O)c2ccc(CN3CCN(C)CC3)cc2)cc1Nc1nccc(-c2cccnc2)n1 [IMATINIB]
not listed: [7]
Not Active: all other assays above

O=c1ncn2nc(Sc3ccc(F)cc3F)ccc2c1-c1c(Cl)cccc1Cl [NEFLAMAPIMOD]
Not Active: all assays above

CCOc1cc2ncc(C#N)c(Nc3ccc(F)c(Cl)c3)c2cc1NC(=O)/C=C/CN(C)C [PELITINIB]
Not Active: Aurora kinase C | [1] | [8] | [4] | [5]

Oc1ccc(-c2nc(-c3ccc(F)cc3)c(-c3ccncc3)[nH]2)cc1 [SB-202190]
Not Active: all assays above

C[S+]([O-])c1ccc(-c2nc(-c3ccc(F)cc3)c(-c3ccncc3)[nH]2)cc1 (centres undefined) [SB-203580]
Not Active: all assays above

CC[C@H](CO)Nc1nc(NCc2ccccc2)c2ncn(C(C)C)c2n1 [SELICICLIB]
not listed: [3]
Not Active: all other assays above

Oc1c2ccccc2c2c3c(cccc13)N=N2 [SP-600125]
Not Active: [1] | [8] | [4] | [5] | [7]

COc1cc2c(N3CCN(C(=O)Nc4ccc(OC(C)C)cc4)CC3)ncnc2cc1OCCCN1CCCCC1 [TANDUTINIB]
not listed: [4] | [7]
Not Active: all other assays above
